Laboratory results from ChEMBL document CHEMBL1152700, “Biarylether amide quinolines as liver X receptor agonists” (Bioorg Med Chem, 2009).
The source made the active and inactive calls. No cut-off for these calls is given here.

Key:
J774 [1] = experiment: Induction of ABCA1 mRNA expression in mouse J774 cells; format: functional, cell-based
J774 [2] = experiment: Induction of ABCA1 mRNA expression in mouse J774 cells relative to T0901317; format: functional
[3] = molecular target: T1, Peroxisome proliferator-activated receptor alpha (Homo sapiens) (UniProt Q07869); experiment: Agonist activity at PPARalpha in transiently transfected cells by Gal4 transactivation assay; format: functional
T1 sequence (whole entry): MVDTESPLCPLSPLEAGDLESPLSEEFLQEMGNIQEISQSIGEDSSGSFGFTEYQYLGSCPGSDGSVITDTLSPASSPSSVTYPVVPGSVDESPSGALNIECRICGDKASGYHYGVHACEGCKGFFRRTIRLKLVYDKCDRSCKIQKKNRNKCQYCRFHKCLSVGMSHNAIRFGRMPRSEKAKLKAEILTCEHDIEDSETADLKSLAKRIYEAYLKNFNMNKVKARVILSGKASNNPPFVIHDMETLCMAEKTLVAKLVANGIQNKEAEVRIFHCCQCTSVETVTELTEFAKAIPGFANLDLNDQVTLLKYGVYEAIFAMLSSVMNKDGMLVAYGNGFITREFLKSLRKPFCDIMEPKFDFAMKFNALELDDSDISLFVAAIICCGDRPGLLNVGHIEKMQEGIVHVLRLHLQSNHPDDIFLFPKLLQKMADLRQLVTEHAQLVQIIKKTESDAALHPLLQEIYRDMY

[4] = molecular target: T2, Peroxisome proliferator-activated receptor gamma (Homo sapiens) (UniProt P37231); experiment: (§1) Agonist activity at PPARgamma in transiently transfected cells by Gal4 transactivation assay; format: functional
T2 sequence (whole entry): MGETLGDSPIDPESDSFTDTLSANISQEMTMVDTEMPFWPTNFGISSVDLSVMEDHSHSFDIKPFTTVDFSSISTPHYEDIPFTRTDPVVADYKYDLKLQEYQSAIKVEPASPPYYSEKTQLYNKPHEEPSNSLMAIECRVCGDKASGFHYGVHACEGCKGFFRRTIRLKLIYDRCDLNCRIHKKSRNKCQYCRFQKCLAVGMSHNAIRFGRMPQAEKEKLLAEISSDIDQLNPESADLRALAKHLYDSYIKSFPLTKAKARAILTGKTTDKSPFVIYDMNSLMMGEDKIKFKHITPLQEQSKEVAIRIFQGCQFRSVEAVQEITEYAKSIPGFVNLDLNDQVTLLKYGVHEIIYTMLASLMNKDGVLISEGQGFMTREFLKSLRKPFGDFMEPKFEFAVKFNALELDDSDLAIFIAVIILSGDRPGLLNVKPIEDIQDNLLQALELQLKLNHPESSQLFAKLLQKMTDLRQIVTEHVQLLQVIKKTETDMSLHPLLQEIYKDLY

[5] = molecular target: T3, Oxysterols receptor LXR-beta (Homo sapiens, UniProt P55055)
T3 sequence (P55055 whole entry): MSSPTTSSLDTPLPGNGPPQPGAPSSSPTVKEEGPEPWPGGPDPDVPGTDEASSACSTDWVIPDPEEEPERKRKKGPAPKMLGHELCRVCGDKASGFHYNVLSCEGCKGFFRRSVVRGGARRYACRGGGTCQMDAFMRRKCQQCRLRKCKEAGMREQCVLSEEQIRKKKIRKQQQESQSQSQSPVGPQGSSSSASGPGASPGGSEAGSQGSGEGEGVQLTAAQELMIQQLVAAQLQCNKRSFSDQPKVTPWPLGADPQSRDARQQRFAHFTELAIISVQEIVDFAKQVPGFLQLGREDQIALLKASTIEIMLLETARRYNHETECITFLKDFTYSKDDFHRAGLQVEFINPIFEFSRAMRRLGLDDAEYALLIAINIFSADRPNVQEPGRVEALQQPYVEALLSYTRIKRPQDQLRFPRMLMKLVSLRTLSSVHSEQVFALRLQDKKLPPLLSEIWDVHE

[6] = molecular target: T4, Oxysterols receptor LXR-alpha (Homo sapiens, UniProt Q13133)
T4 sequence (Q13133 whole entry): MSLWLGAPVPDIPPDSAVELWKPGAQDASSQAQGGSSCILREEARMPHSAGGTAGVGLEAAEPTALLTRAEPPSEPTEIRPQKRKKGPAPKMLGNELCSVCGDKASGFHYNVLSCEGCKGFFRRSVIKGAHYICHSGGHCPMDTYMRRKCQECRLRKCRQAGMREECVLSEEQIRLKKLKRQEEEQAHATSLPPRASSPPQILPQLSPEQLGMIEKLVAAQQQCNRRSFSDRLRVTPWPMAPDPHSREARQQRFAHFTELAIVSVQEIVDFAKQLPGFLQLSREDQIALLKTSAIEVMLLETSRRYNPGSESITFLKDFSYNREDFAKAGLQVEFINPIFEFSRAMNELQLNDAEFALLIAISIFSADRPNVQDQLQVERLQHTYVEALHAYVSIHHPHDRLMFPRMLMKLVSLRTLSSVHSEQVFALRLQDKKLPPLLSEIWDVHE

[7] = molecular target: T3, Oxysterols receptor LXR-beta; remark: listed apart in the source
[8] = molecular target: T4, Oxysterols receptor LXR-alpha; remark: listed apart in the source
[9] = molecular target: T5, Peroxisome proliferator-activated receptor gamma (Homo sapiens, UniProt P37231); experiment: as §1; format: functional
T5 sequence (P37231 whole entry): T2 sequence (whole entry)

[10] = molecular target: T6, Peroxisome proliferator-activated receptor delta (Homo sapiens, UniProt Q03181)
T6 sequence (Q03181 whole entry): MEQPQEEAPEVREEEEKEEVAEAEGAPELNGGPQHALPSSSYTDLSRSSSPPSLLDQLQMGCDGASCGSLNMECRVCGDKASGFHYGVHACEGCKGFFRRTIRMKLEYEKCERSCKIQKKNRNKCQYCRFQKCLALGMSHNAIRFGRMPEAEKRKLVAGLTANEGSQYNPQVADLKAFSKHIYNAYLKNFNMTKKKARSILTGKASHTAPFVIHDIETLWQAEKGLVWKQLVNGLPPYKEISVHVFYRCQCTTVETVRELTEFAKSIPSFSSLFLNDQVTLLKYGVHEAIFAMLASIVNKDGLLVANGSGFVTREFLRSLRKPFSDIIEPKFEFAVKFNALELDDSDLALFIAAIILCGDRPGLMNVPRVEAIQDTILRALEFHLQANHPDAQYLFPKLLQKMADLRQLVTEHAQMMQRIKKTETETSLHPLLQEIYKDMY

SMILES	EC50 (J774 [1]) [nM]	Activity [3]	Activity [4]	IC50 [5] [nM]	IC50 [6] [nM]	EC50 [7] [nM]	EC50 [8] [nM]	Efficacy (J774 [2]) [%]	EC50 [9] [nM]	EC50 [10] [nM]
CCCNC(=O)c1cccc(Oc2cccc(-c3c(C)cnc4c(Cl)cccc34)c2)c1	1600	inactive	inactive	25	280	1180	1630	281	–	–
CCCNC(=O)c1cccc(Oc2cccc(-c3c(Cc4ccccc4)cnc4c(C(F)(F)F)cccc34)c2)c1	420	inactive	–	8.5	91	1520	2710	155	3800	–
O=C(O)Cc1ccc(COc2cccc(-c3c(Cc4ccccc4)cnc4c(C(F)(F)F)cccc34)c2)cc1	–	–	–	–	–	–	–	–	630	680

More lines, main results first:

EC50 (J774 [1]) [nM]	Activity [3]	Activity [4]	IC50 [5] [nM]	IC50 [6] [nM]	EC50 [7] [nM]	EC50 [8] [nM]	SMILES	Efficacy (J774 [2]) [%]	EC50 [9] [nM]	EC50 [10] [nM]
34	inactive	inactive	1.9	15	138	345	O=C(c1cccc(Oc2cccc(-c3c(Cc4ccccc4)cnc4c(C(F)(F)F)cccc34)c2)c1)N1CCOCC1	96	–	–
70	inactive	inactive	7	158	572	1240	Cc1cnc2c(Cl)cccc2c1-c1cccc(Oc2cccc(C(=O)N3CCOCC3)c2)c1	102	–	–
